Source: patent publication US8138309B2, “Modified rubisco large subunit n-methyltransferase useful for targeting molecules to the active-site vicinity of ribulose-1,5-bisphosphate” (University of Kentucky Research Foundation, priority 2008, dated 2012)

Target: T1, spinach Rubisco (Spinacia oleracea, UniProt P00875)
T1 construct: Spinach and pea Rubisco, and pea Rubisco LSMT were purified according to McCurry; from tissue
Assay: Rubisco carboxylase assay (14CO2 fixation, O2-free, CO2-free buffers), spinach Rubisco
Format: biochemical
Details: added to the Rubisco complex containing bound CA before the assay; AdoMet 100 μM
Protocol: Kinetic analyses were performed as described previously for Rubisco Lorimer, G. H., Badger, M. R., and Andrews, T. J. Biochemistry 15, 529-536.1976. Pierce, J. W., McCurry, S. D., Mulligan, R. M., and Tolbert, N. E. Methods Enzymol. 89 Pt D, 47-55.1982. Assays were conducted under O2 free conditions with CO2-free buffers as described below, and contained normalized Rubisco and hCAII activities, unless otherwise indicated. The assays contained, unless otherwise indicated, 100 mM Bicine adjusted to pH 8.2 with a saturated NaOH solution, 20 mM MgCl2, 2 mM dithiothreitol, 0.5 mM RuBP, and NaH^14 CO3 (1.0 mCi/mmol). Reactions were initiated by the addition of activated Rubisco, or conjugate, injected into an 8 mL serum capped vial (first flushed with nitrogen). Activation of Rubisco or conjugate was performed at 2 mg/mL by incubation at 30 C for 15 min in 50 mM Bicine, pH 8.2, containing 20 mM MgCl2 and 15 mM NaH^14CO3. Assay times, enzyme masses, volumes, or specific activities were adjusted to limit substrate consumption to 10% or less. The assays were terminated by the addition by 2N HCl (0.4 volumes), and the liquid evaporated to dryness under a stream of air at 50° C. Radioactivity was determined with a liquid scintillation analyzer (Packard 2000 CA), after addition of 0.5 mL H20 and 4.5 mL of cocktail (Bio-Safe II, RPI). […]

C[S+](CC[C@H](N)C(=O)[O-])C[C@H]1O[C@@H](n2cnc3c(N)ncnc32)[C@H](O)[C@@H]1O (stereo partly shown) [AdoMet, S-adenosylmethionine]
effect on the stimulation of carboxylase activity by bound CA: the effect of bound CA was abolished
